Measurements from US20190282600A1, “COMBINATION THERAPIES TARGETING TERT DEPENDENCY FOR CANCER THERAPY” (The Wistar Institute of Anatomy and Biology, priority 2018, published 2019).

Tests used:
[1] = test system: NRAS mutant tumors (WM3000, M93-047); experiment: NRAS mutant melanoma xenograft tumors in mice; assay type: in vivo; conditions: for tumor growth: 6-Thio-dG 2.5 mg/kg i.p. q.d., single agent
Protocol: (§1) FIGS. 2a to 2c show NRAS^mut melanoma cells (FIG. 2a), BRAF-V600E/NRAS mutant cells derived from melanoma patients resistant to BRAF/MEK inhibitors (FIG. 2b), or non-transformed melanocytes and fibroblasts (FIG. 2c) were treated with 6-thio-dG for 7 days. Cell viability was measured by Alamar Blue assay and calculated relative to DMSO-treated cells. […] Cell death was assessed by PSVUe staining. Percent of apoptotic cells is shown. […] Mean TRF length expressed as kilobase pairs is indicated at the bottom. […] FIG. 2g provides a bar graph showing that DNA damage was assessed by γH2AX staining. Data represent average from three independent experiments ±SEM. *p<0.05; **p<0.01; ***p<0.005 in unpaired Student's t-test. As presented in FIG. 2h, mice bearing established WM3000 or M93-047 NRAS^mut tumors were treated with vehicle control or 6-thio-dG (2.5 mg/kg i.p; q.d). Tumor volume was measured and average tumor volume (n=4) ±SEM was plotted vs. time.
FIGS. 6a to 6e provide results showing that combining 6-thio-dG and Gamitrinib inhibits the growth of 3D melanoma spheroids and NRAS-mutant xenograft tumors. Collagen-embedded melanoma spheroids were treated with DMSO, 6-thio-dG (5 μM) and Gam (5 μM) as in FIGS. 4a to 4e. On day 7, spheroids were stained with Calcein AM (live cells; green) and EtBr (dead cells; red) and imaged using an inverted microscope (4X; scale bar=250 μm). […] P values were calculated using unpaired Student's t-test. *p<0.05, ** p<0.01, ***p<0.005, when comparing vehicle control vs. combination treatment groups. […] Kaplan Meier survival curves of mice treated for 14 days. p-values were calculated by Mantel-Cox log-rank test; *p<0.05, **p<0.01, ***p<0.005. Animal weight (grams) before treatment (Start of TX) and at the end of the study (End of TX) was assessed, recorded for every mouse enrolled in the study and plotted in FIG. 6e. […] Statistical significance was assessed by unpaired Student's t-test.
All animal experiments were performed in accordance with institutional guidelines. […] Tumor growth was measured twice weekly with digital calipers. […]

[2] = test system: NRAS mutant melanoma cells; experiment: Cell death by flow cytometry (PSVue or Annexin V/PI); assay type: cell-based, Human
Protocol: as §1
FIGS. 3a to 3g provides graphs showing that telomere dysfunction enhances oxidative stress leading to upregulation of an antioxidant program. […] Mitochondrial superoxide production was measured by MitoSox Red fluorescence (FIGS. 3c, and 3d) and expressed as fluorescence relative to vector or DMSO controls. […] FIG. 3f provides a bar graph showing that SOD2 was silenced using shRNA. Transduced M93-047 cells were treated with DMSO or 1 μM of 6-thio-dG and cell death was assessed by Annexin V/PI straining. As presented in FIG. 3g, M93-047 cells were transduced with a SOD2 lentiviral construct or empty vector control (pLX304). Transduced cells were treated with increasing doses (1, 2.5 and 5 μM) of 6-thio-dG for 7 days and cell death was assessed. Data represent average from three independent experiments ±SEM. *p<0.05; **p<0.01; ***p<0.005 in unpaired Student's t-test.
FIGS. 4a to 4e provides bar graphs showing that induction of telomere and mitochondrial dysfunction triggers cell death in NRAS mutant melanoma. […] Cell death was assessed by Annexin V and PI staining. […] Cells were stained with Annexin V and PI and percent cell death was determined by flow cytometry. […] P values were calculated using unpaired Student's t-test; * p<0.05; *** p<0.005.
As presented in FIG. 16a, SOD2 was silenced using shRNA. Transduced WM3000 cells were treated with DMSO or 1 μM of 6-thio-dG and cell death was assessed by Annexin V/PI straining. […] Transduced cells were treated with increasing doses (1, 2.5 and 5 μM) of 6-thio-dG for 10 days and cell death was assessed. […]
In FIG. 17a, NRAS^mut melanoma cells were treated with 6-thio-dG (1 μM) for 7 days total. […] Percent cell death was determined by flow cytometry following staining of cells with Annexin V and Propidium iodide. […]

With `Nc1nc2c(ncn2[C@H]2C[C@H](O)[C@@H](CO)O2)c(=S)[nH]1` [6-thio-dG, 6-thio-2′-deoxyguanosine] the tumor growth [1] was “slowed, but did not completely abrogated tumor growth”, the tumor growth ([1]; listed as 6-Thio-dG) was “slowed the growth of tumors” and the “reduction in tumor volume” value ([1]; 6-Thio-dG 2.5 mg/kg, after 14 days of treatment) was “approximately 50%”. For the same compound, the “cell death (PSVue staining)” value ([2]; 1 or 5 μM 6-thio-dG for 7 or 14 days) was “led to cell death after 7-14 days”, the “apoptosis / cell death” value ([2]; SOD2 overexpression, 1, 2.5 and 5 μM 6-thio-dG for 7 or 10 days, M93-047, WM3000) was “attenuated the apoptosis-inducing effects” and the “apoptosis / cell death (Annexin V/PI)” value ([2]; SOD2 silenced by shRNA, 1 μM 6-thio-dG, M93-047, WM3000) was “enhanced the ability of 6-Thio-dG to induce apoptosis”.
